{"source": "patent US12590118B2", "about": "“Salt and crystal form of steroid derivative regulator” (Shanghai Hansoh Biomedical Co., Ltd., priority 2019, dated 2026)", "key": {"[1]": {"test": "Competitive experiment of different crystal forms of the free base", "assay_type": "physicochemical", "conditions": "40° C.", "description": "The stability among crystal forms I, II and III of the free base of Example 40 was investigated, so as to select the stable crystal form.\nMultiple portions of about 20 mg of crystal forms I, II and III of the free base of Example 40 were accurately weighed, and mixed in pairs in equal amounts. Methyl tert-butyl ether and n-heptane were added respectively, and the resulting mixture was stirred at 40° C. for 7 days. The mixture was centrifuged at high speed, the supernatant was removed, and the resulting solid precipitate was vacuum dried in an oven at 40° C. and characterized by XRPD."}, "[2]": {"test": "Crystal form stability experiment (XRPD)", "assay_type": "physicochemical", "description": "X-ray powder diffraction assay was carried out, and the obtained data was compared with the initial data."}}}
{"smiles": "C[C@@H]1C[C@H](C(=O)Cn2ccc(C#N)n2)[C@@]2(C)CC[C@H]3[C@@H](CC[C@@H]4C[C@](C)(O)CC[C@@H]43)[C@H]12", "note": "[Crystal form I, 1-(2-((3R,5R,8R,9R,10S,13S,14S,15R,17S)-3-Hydroxy-3,13,15-trimethylhexadecahydro-1H-cyclopenta[a]phenanthren-17-yl)-2-oxoethyl)-1H-pyrazole-3-carbonitrile]", "values": [{"measurement": "solubility in n-heptane (in words)", "setting": "[1]", "result": "almost insoluble"}, {"measurement": "X-ray powder diffraction peak No. 1", "setting": "[2]; 0 day (initial)", "result": 7.3}, {"measurement": "X-ray powder diffraction peak No. 2", "setting": "[2]; 0 day (initial)", "result": 11.1}, {"measurement": "X-ray powder diffraction peak No. 3", "setting": "[2]; 0 day (initial)", "result": 11.9}, {"measurement": "X-ray powder diffraction peak No. 4", "setting": "[2]; 0 day (initial)", "result": 12.6}, {"measurement": "X-ray powder diffraction peak No. 5", "setting": "[2]; 0 day (initial)", "result": 16.7}, {"measurement": "X-ray powder diffraction peak No. 6", "setting": "[2]; 0 day (initial)", "result": 17.4}, {"measurement": "X-ray powder diffraction peak No. 7", "setting": "[2]; 0 day (initial)", "result": 20.2}, {"measurement": "X-ray powder diffraction peak No. 8", "setting": "[2]; 0 day (initial)", "result": 20.6}, {"measurement": "X-ray powder diffraction peak No. 9", "setting": "[2]; 0 day (initial)", "result": 21.9}, {"measurement": "X-ray powder diffraction peak No. 10", "setting": "[2]; 0 day (initial)", "result": 23.9}, {"measurement": "X-ray powder diffraction peak No. 11", "setting": "[2]; 0 day (initial)", "result": 38.4}, {"measurement": "X-ray powder diffraction peak No. 1", "setting": "[2]; 25° C. RH75%, 5 days", "result": 7.3}, {"measurement": "X-ray powder diffraction peak No. 2", "setting": "[2]; 25° C. RH75%, 5 days", "result": 11.0}, {"measurement": "X-ray powder diffraction peak No. 3", "setting": "[2]; 25° C. RH75%, 5 days", "result": 11.8}, {"measurement": "X-ray powder diffraction peak No. 4", "setting": "[2]; 25° C. RH75%, 5 days", "result": 12.5}, {"measurement": "X-ray powder diffraction peak No. 5", "setting": "[2]; 25° C. RH75%, 5 days", "result": 16.6}, {"measurement": "X-ray powder diffraction peak No. 6", "setting": "[2]; 25° C. RH75%, 5 days", "result": 17.3}, {"measurement": "X-ray powder diffraction peak No. 7", "setting": "[2]; 25° C. RH75%, 5 days", "result": 20.1}, {"measurement": "X-ray powder diffraction peak No. 8", "setting": "[2]; 25° C. RH75%, 5 days", "result": 20.5}, {"measurement": "X-ray powder diffraction peak No. 9", "setting": "[2]; 25° C. RH75%, 5 days", "result": 21.7}, {"measurement": "X-ray powder diffraction peak No. 10", "setting": "[2]; 25° C. RH75%, 5 days", "result": 24.1}, {"measurement": "X-ray powder diffraction peak No. 11", "setting": "[2]; 25° C. RH75%, 5 days", "result": 38.2}, {"measurement": "X-ray powder diffraction peak No. 1", "setting": "[2]; 25° C. RH75%, 10 days", "result": 7.3}, {"measurement": "X-ray powder diffraction peak No. 2", "setting": "[2]; 25° C. RH75%, 10 days", "result": 11.0}, {"measurement": "X-ray powder diffraction peak No. 3", "setting": "[2]; 25° C. RH75%, 10 days", "result": 11.8}, {"measurement": "X-ray powder diffraction peak No. 4", "setting": "[2]; 25° C. RH75%, 10 days", "result": 12.5}, {"measurement": "X-ray powder diffraction peak No. 5", "setting": "[2]; 25° C. RH75%, 10 days", "result": 16.6}, {"measurement": "X-ray powder diffraction peak No. 6", "setting": "[2]; 25° C. RH75%, 10 days", "result": 17.3}, {"measurement": "X-ray powder diffraction peak No. 7", "setting": "[2]; 25° C. RH75%, 10 days", "result": 20.1}, {"measurement": "X-ray powder diffraction peak No. 8", "setting": "[2]; 25° C. RH75%, 10 days", "result": 20.5}, {"measurement": "X-ray powder diffraction peak No. 9", "setting": "[2]; 25° C. RH75%, 10 days", "result": 21.8}, {"measurement": "X-ray powder diffraction peak No. 10", "setting": "[2]; 25° C. RH75%, 10 days", "result": 24.1}, {"measurement": "X-ray powder diffraction peak No. 11", "setting": "[2]; 25° C. RH75%, 10 days", "result": 38.2}, {"measurement": "X-ray powder diffraction peak No. 1", "setting": "[2]; 25° C. RH75%, 30 days", "result": 7.1}, {"measurement": "X-ray powder diffraction peak No. 2", "setting": "[2]; 25° C. RH75%, 30 days", "result": 11.2}, {"measurement": "X-ray powder diffraction peak No. 3", "setting": "[2]; 25° C. RH75%, 30 days", "result": 11.7}, {"measurement": "X-ray powder diffraction peak No. 4", "setting": "[2]; 25° C. RH75%, 30 days", "result": 12.4}, {"measurement": "X-ray powder diffraction peak No. 5", "setting": "[2]; 25° C. RH75%, 30 days", "result": 16.5}, {"measurement": "X-ray powder diffraction peak No. 6", "setting": "[2]; 25° C. RH75%, 30 days", "result": 17.2}, {"measurement": "X-ray powder diffraction peak No. 7", "setting": "[2]; 25° C. RH75%, 30 days", "result": 20.0}, {"measurement": "X-ray powder diffraction peak No. 8", "setting": "[2]; 25° C. RH75%, 30 days", "result": 20.7}, {"measurement": "X-ray powder diffraction peak No. 9", "setting": "[2]; 25° C. RH75%, 30 days", "result": 22.0}, {"measurement": "X-ray powder diffraction peak No. 10", "setting": "[2]; 25° C. RH75%, 30 days", "result": 24.0}, {"measurement": "X-ray powder diffraction peak No. 11", "setting": "[2]; 25° C. RH75%, 30 days", "result": 38.2}, {"measurement": "X-ray powder diffraction peak No. 1", "setting": "[2]; 25° C. RH90%, 5 days", "result": 7.2}, {"measurement": "X-ray powder diffraction peak No. 2", "setting": "[2]; 25° C. RH90%, 5 days", "result": 11.0}, {"measurement": "X-ray powder diffraction peak No. 3", "setting": "[2]; 25° C. RH90%, 5 days", "result": 11.8}, {"measurement": "X-ray powder diffraction peak No. 4", "setting": "[2]; 25° C. RH90%, 5 days", "result": 12.5}, {"measurement": "X-ray powder diffraction peak No. 5", "setting": "[2]; 25° C. RH90%, 5 days", "result": 16.5}, {"measurement": "X-ray powder diffraction peak No. 6", "setting": "[2]; 25° C. RH90%, 5 days", "result": 17.3}, {"measurement": "X-ray powder diffraction peak No. 7", "setting": "[2]; 25° C. RH90%, 5 days", "result": 20.1}, {"measurement": "X-ray powder diffraction peak No. 8", "setting": "[2]; 25° C. RH90%, 5 days", "result": 20.5}, {"measurement": "X-ray powder diffraction peak No. 9", "setting": "[2]; 25° C. RH90%, 5 days", "result": 21.7}, {"measurement": "X-ray powder diffraction peak No. 10", "setting": "[2]; 25° C. RH90%, 5 days", "result": 24.1}, {"measurement": "X-ray powder diffraction peak No. 11", "setting": "[2]; 25° C. RH90%, 5 days", "result": 38.3}, {"measurement": "X-ray powder diffraction peak No. 1", "setting": "[2]; 25° C. RH90%, 10 days", "result": 7.2}, {"measurement": "X-ray powder diffraction peak No. 2", "setting": "[2]; 25° C. RH90%, 10 days", "result": 11.0}, {"measurement": "X-ray powder diffraction peak No. 3", "setting": "[2]; 25° C. RH90%, 10 days", "result": 11.8}, {"measurement": "X-ray powder diffraction peak No. 4", "setting": "[2]; 25° C. RH90%, 10 days", "result": 12.5}, {"measurement": "X-ray powder diffraction peak No. 5", "setting": "[2]; 25° C. RH90%, 10 days", "result": 16.6}, {"measurement": "X-ray powder diffraction peak No. 6", "setting": "[2]; 25° C. RH90%, 10 days", "result": 17.3}, {"measurement": "X-ray powder diffraction peak No. 7", "setting": "[2]; 25° C. RH90%, 10 days", "result": 20.2}, {"measurement": "X-ray powder diffraction peak No. 8", "setting": "[2]; 25° C. RH90%, 10 days", "result": 20.5}, {"measurement": "X-ray powder diffraction peak No. 9", "setting": "[2]; 25° C. RH90%, 10 days", "result": 21.8}, {"measurement": "X-ray powder diffraction peak No. 10", "setting": "[2]; 25° C. RH90%, 10 days", "result": 23.8}, {"measurement": "X-ray powder diffraction peak No. 11", "setting": "[2]; 25° C. RH90%, 10 days", "result": 38.3}, {"measurement": "X-ray powder diffraction peak No. 1", "setting": "[2]; 25° C. RH90%, 30 days", "result": 7.2}, {"measurement": "X-ray powder diffraction peak No. 2", "setting": "[2]; 25° C. RH90%, 30 days", "result": 11.0}, {"measurement": "X-ray powder diffraction peak No. 3", "setting": "[2]; 25° C. RH90%, 30 days", "result": 11.8}, {"measurement": "X-ray powder diffraction peak No. 4", "setting": "[2]; 25° C. RH90%, 30 days", "result": 12.5}, {"measurement": "X-ray powder diffraction peak No. 5", "setting": "[2]; 25° C. RH90%, 30 days", "result": 16.6}, {"measurement": "X-ray powder diffraction peak No. 6", "setting": "[2]; 25° C. RH90%, 30 days", "result": 17.3}, {"measurement": "X-ray powder diffraction peak No. 7", "setting": "[2]; 25° C. RH90%, 30 days", "result": 20.1}, {"measurement": "X-ray powder diffraction peak No. 8", "setting": "[2]; 25° C. RH90%, 30 days", "result": 20.5}, {"measurement": "X-ray powder diffraction peak No. 9", "setting": "[2]; 25° C. RH90%, 30 days", "result": 21.8}, {"measurement": "X-ray powder diffraction peak No. 10", "setting": "[2]; 25° C. RH90%, 30 days", "result": 24.0}, {"measurement": "X-ray powder diffraction peak No. 11", "setting": "[2]; 25° C. RH90%, 30 days", "result": 38.2}, {"measurement": "X-ray powder diffraction peak No. 1", "setting": "[2]; 40° C., 5 days", "result": 7.2}, {"measurement": "X-ray powder diffraction peak No. 2", "setting": "[2]; 40° C., 5 days", "result": 11.0}, {"measurement": "X-ray powder diffraction peak No. 3", "setting": "[2]; 40° C., 5 days", "result": 11.8}, {"measurement": "X-ray powder diffraction peak No. 4", "setting": "[2]; 40° C., 5 days", "result": 12.5}, {"measurement": "X-ray powder diffraction peak No. 5", "setting": "[2]; 40° C., 5 days", "result": 16.6}]}
